Marks after values point to notes of the source that are not given here.

The subject of data set [1] is Sprague Dawley rats. The data set is described as follows: In vivo lethality, intravenous injection via the tail. Set-up: species or system rat (Sprague Dawley). The following applies: 20 mg/Kg, rat, n = 2. In outline:
(§1)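 Sprague Dawley rats (150-200 g) received compound dissolved in 0.2 M HCl (5% DMSO overall) at the desired dose, by oral gavage or tail-vein i.v. injection. Animals were watched for early toxicity signs every minute (i.v.) or every 15 min (oral).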

The nature of data set [2]: Rat serum assay (release of NRB or NRB analogue). It is filed as in vitro ADME. To be noted: 80% rat serum, 37° C., 3 h, n = 3. An outline of the steps:
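Compound (200 μM final) incubated in 80% rat serum diluted with 0.1 M phosphate pH 7.4, 2.5% DMSO, 37 °C for 3 h, n=3, then quenched in ice-cold acetonitrile. NRB or analogue release was quantified by RP-LCMS against external calibration curves, expressed as percent released.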

The next data set deals with rat caudal artery. As to the kind of experiment: Rat caudal artery ring contractile force (vasoconstrictory activity). Details: species or system rat (male Wistar). In outline:
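Endothelium-denuded caudal artery rings from male Wistar rats were held at 2 g resting tension in Tyrode solution (37° C, pH 7.35, 95% O2/CO2) and isometric force was recorded. Compounds were tested at 50 μM, with contraction expressed as percent of the 90 mM KCl response.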

Data set [3] is described as follows: Simulated gastric fluid (SGF) hydrolytic stability assay. It is filed as physicochemical. The following applies: footnote c: compounds not exhibiting vasoconstriction; simulated gastric fluid without pepsin, pH 1.2, 37° C., 1 h, n = 3. In outline: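 Compounds at 200 μM final (2.5% DMSO) were held 1 h at 37 °C in pepsin-free USP simulated gastric fluid (0.03 M NaCl, pH 1.2 with HCl), n=3. […] was quantified by RP-LCMS.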

Data set [4] in a line: Rat liver S9 fraction assay (release of NRB or NRB analogue). The following applies: 1 mg/mL rat liver S9 fraction, 37° C., 6 h, n = 3. It is filed as in vitro ADME, rat (male Sprague-Dawley). Here is the method: The hydrolytic stability of compounds of the invention was also evaluated in vitro using rat liver S9 fraction (20 mg/mL), pooled from male rat (Sprague-Dawley), obtained from Sigma-Aldrich, diluted to 1 mg/mL with phosphate buffer (0.1 M, pH 7.4) and stored at −78° C. Similar assay conditions to those reported by Li Di and co-workers (Int. J. Pharm. 2005, 297, 110-119) were followed [200 μL total volume, 1 mg/mL rat liver S9 fraction (diluting with phosphate buffer (0.1 M, pH 7.4)), at a final compound concentration of 200 μM, 2.5% DMSO overall, 37° C., 6 h, n=3]. The assay protocol followed is as that described above for the rat serum assay, with an adjusted end-point of 6 h.

For data set [5], the system named is Sprague Dawley rats. The data set is described as follows: In vivo lethality, oral gavage. Details: species or system rat (Sprague Dawley). The following applies: rat; for Time to Death (min) / Onset of Symptoms: mean time; for Onset of Symptoms: visual signs of distress consistent with NRB-like symptoms; for In vivo lethality (oral): n = 2. An outline of the steps:
as §1

The test system of data set [6] is Sprague Dawley rats. As to the kind of experiment: Palatability (no-choice) trial, peanut butter bait. To be noted: 1% w/w toxicant in peanut butter bait, n = 6, 3 male and 3 female rats. It is filed as in vivo, rat (Sprague Dawley). The source says:
In the palatability trials, Sprague Dawley rats (ca. 250 g) were presented with 1% w/w compound (n=6) or 0.5% w/w compound (n=5) in a peanut butter bait, following 3 days ‘pre-baiting’ with a peanut butter formulation free of toxicant.

For data set [7], the system named is Sprague Dawley rats. The data set is described as follows: Palatability (no-choice) trial, peanut butter bait. The following applies: 2% w/w toxicant in peanut butter bait, n = 6, Table 12. It is filed as in vivo, rat (Sprague Dawley).
Data set [8] deals with Sprague Dawley rats. The data set is described as follows: Palatability (choice) trial, peanut butter bait. The class given is in vivo, rat (Sprague Dawley). The following applies: choice of EPA diet (20 g) and bait with 1% w/w toxicant (20 g), 2 days, n = 2; Table 15.

Turning to “5-(α-Hydroxy-α-2-pyridylbenzyl)-N-2′-phenylpropioyloxyethyl-7-(α-2-pyridylbenzylidene)-5-norbornene-2,3-dicarboximide [Compound 123]”, the “In vivo lethality (i.v.)” value in the data set on Sprague Dawley rats [1] is “yes^f”. Besides, the “% NRB released, Rat Serum” value in data set [2] is reported as 84.5 ± 2.0%. For the same molecule, the “Vasoconstriction: maximum contractile effect as a % of 90 mM KCl contraction” value with rat caudal artery (Table 1, compound at 50 μM) turned out to be 0%; in the data set on rat caudal artery (Table 4, pre-cleavage, n = 3), 0%. The “% NRB released, Hydrolytic Stability (simulated gastric fluid)” value (shortened to “% NRB released, Hydrolytic Stability”) in [3] was 0^c %. The “% NRB released, Rat Liver S9” value in [4] was determined as 55.6 ± 4.1%. In addition, the “Time to Death (min)” value with Sprague Dawley rats [5] (20 mg/Kg) is 35^d min. Further, the “Onset of Symptoms” value in the data set with Sprague Dawley rats [5] (20 mg/Kg) worked out at 15 min. Moreover, the “In vivo lethality (oral)” value with Sprague Dawley rats [5] (20 mg/Kg) and in the data set on Sprague Dawley rats [5] (40 mg/Kg) was “yes^h,i” each time.
On to `O=C(OCN1C(=O)C2C3C=C(C(O)(c4ccccc4)c4ccccn4)C(C3=C(c3ccccc3)c3ccccn3)C2C1=O)c1ccc2ccccc2c1` (stereo not drawn) [Compound 20, 5-(α-Hydroxy-α-2-pyridylbenzyl)-2′-naphthoyloxymethyl-7-(α-2-pyridylbenzylidene)-5-norbornene-2,3-dicarboximide], for which the “In vivo lethality (i.v.)” value with Sprague Dawley rats [1] is listed as “yes^f”. Besides, the “% NRB released, Rat Serum” value in data set [2] turned out to be 31.3 ± 2.7%. The “Vasoconstriction: maximum contractile effect as a % of 90 mM KCl contraction” value with rat caudal artery (Table 1, compound at 50 μM) is on record as 0%; in the data set with rat caudal artery (Table 4, pre-cleavage, n = 3) it was 0%. Also, the “% NRB released, Hydrolytic Stability” value in data set [3] is recorded as 0^c %. The “% NRB released, Rat Liver S9” value in [4] was 20.2 ± 0.8%. In addition, the “In vivo lethality (oral)” value with Sprague Dawley rats [5] (40 mg/Kg) is listed as “no^h”.
With `CCCCCCCC(=O)OCCN1C(=O)C2C3C=C(C(O)(c4ccccc4)c4ccccn4)C(C3=C(c3ccccc3)c3ccccn3)C2C1=O` (stereo not drawn) [Compound 111, 5-(α-Hydroxy-α-2-pyridylbenzyl)-N-2′-octanoyloxyethyl-7-(α-2-pyridylbenzylidene)-5-norbornene-2,3-dicarboximide], the “% NRB released, Rat Serum” value in data set [2] is 87.9 ± 0.7%. Further, in the data set with rat caudal artery (Table 1, compound at 50 μM), the “Vasoconstriction: maximum contractile effect as a % of 90 mM KCl contraction” value is 0%. Further, the “Vasoconstriction: maximum contractile effect as a % of 90 mM KCl contraction” value with rat caudal artery (Table 4, pre-cleavage, n = 3) worked out at 0%. Besides, in data set [3], the “% NRB released, Hydrolytic Stability” value is reported as 20^c %. Further, in [4], the “% NRB released, Rat Liver S9” value was 48.5 ± 8.5%. In addition, the No of deaths with Sprague Dawley rats [6] (Table 11) is 6/6. Besides, in the data set with Sprague Dawley rats [5] (20 mg/Kg), the “Time to Death (min)” value is reported as >120^e min and the “Onset of Symptoms” value came out at 15 min.
As for `O=C(OCCN1C(=O)C2C3C=C(C(O)(c4ccccc4)c4ccccn4)C(C3=C(c3ccccc3)c3ccccn3)C2C1=O)C(c1ccccc1)c1ccccc1` (stereo not drawn) [Compound 118], in the data set on Sprague Dawley rats [1], the “In vivo lethality (i.v.)” value is on record as “yes^f”. Besides, the “% NRB released, Rat Serum” value in data set [2] is reported as under 5%. Besides, the “Vasoconstriction: maximum contractile effect as a % of 90 mM KCl contraction” value worked out at 0% with rat caudal artery (Table 1, compound at 50 μM) and 0% in the data set on rat caudal artery (Table 4, pre-cleavage, n = 3). Further, the “% NRB released, Hydrolytic Stability” value in data set [3] was 0^c %. Besides, the “% NRB released, Rat Liver S9” value in data set [4] is reported as 9.0 ± 0.7%. In the data set on Sprague Dawley rats [5] (40 mg/Kg), the “In vivo lethality (oral)” value is reported as “no^h”.
On to `O=C(OCCN1C(=O)C2C3C=C(C(O)(c4ccccc4)c4ccccn4)C(C3=C(c3ccccc3)c3ccccn3)C2C1=O)c1ccc2ccccc2c1` (stereo not drawn) [Compound 122, 5-(α-Hydroxy-α-2-pyridylbenzyl)-N-[2′-(2″-naphthoyloxy)ethyl]-7-(α-2-pyridylbenzylidene)-5-norbornene-2,3-dicarboximide], for which the “In vivo lethality (i.v.)” value with Sprague Dawley rats [1] is reported as “yes^f”. For the same molecule, the “% NRB released, Rat Serum” value in [2] was found to be 14.4 ± 3.0%. Also, the “Vasoconstriction: maximum contractile effect as a % of 90 mM KCl contraction” value with rat caudal artery (Table 1, compound at 50 μM) is 0%; in the data set with rat caudal artery (Table 4, pre-cleavage, n = 3), 0%. In addition, the “% NRB released, Hydrolytic Stability” value in data set [3] is given as 0^c %. Also, the “% NRB released, Rat Liver S9” value in data set [4] is recorded as 14.1 ± 0.5%. The “In vivo lethality (oral)” value with Sprague Dawley rats [5] (20 mg/Kg) and with Sprague Dawley rats [5] (40 mg/Kg) was “yes^h,i” throughout.
With `O=C(C=Cc1ccccc1)OCCCN1C(=O)C2C3C=C(C(O)(c4ccccc4)c4ccccn4)C(C3=C(c3ccccc3)c3ccccn3)C2C1=O` (stereo not drawn) [Compound 136, N-3′-Cinnamoyloxypropyl-5-(α-hydroxy-α-2-pyridylbenzyl)-7-(α-2-pyridylbenzylidene)-5-norbornene-2,3-dicarboximide], the “In vivo lethality (i.v.)” value with Sprague Dawley rats [1] was “yes^f”. Besides, the “% NRB released, Rat Serum” value in [2] amounted to 76.5 ± 5.7%. In addition, in the data set on rat caudal artery (Table 1, compound at 50 μM), the “Vasoconstriction: maximum contractile effect as a % of 90 mM KCl contraction” value was 0%. For the same molecule, the “Vasoconstriction: maximum contractile effect as a % of 90 mM KCl contraction” value in the data set on rat caudal artery (Table 4, pre-cleavage, n = 3) came out at 0%. Further, in data set [3], the “% NRB released, Hydrolytic Stability” value is listed as 0^c %. In data set [4], the “% NRB released, Rat Liver S9” value turned out to be 18.2 ± 2.7%. In the data set on Sprague Dawley rats [5] (20 mg/Kg), the “Time to Death (min)” value is listed as “not lethal” and the “Onset of Symptoms” value stood at 20 min. The “In vivo lethality (oral)” value with Sprague Dawley rats [5] (40 mg/Kg) was “yes^h”.
Consider `CCCCCCCCCCCC(=O)NCCN1C(=O)C2C3C=C(C(O)(c4ccccc4)c4ccccn4)C(C3=C(c3ccccc3)c3ccccn3)C2C1=O` (stereo not drawn) [Compound 339, N-2′-Dodecanamidoethyl-5-(α-hydroxy-α-2-pyridylbenzyl)-7-(α-2-pyridylbenzylidene)-5-norbornene-2,3-dicarboximide], for which the No of deaths in the data set with Sprague Dawley rats [7] is 5/6; in the data set with Sprague Dawley rats [6] (Table 12), 3/6; in the data set on Sprague Dawley rats [8], 3/12. The “Vasoconstriction: maximum contractile effect as a % of 90 mM KCl contraction” value with rat caudal artery (Table 2, compound at 50 μM) stood at 0%; in the data set with rat caudal artery (Table 4, pre-cleavage, n = 3), 0%. Moreover, the “Time to Death (min)” value with Sprague Dawley rats [5] (20 mg/Kg) is on record as 300^e min. Also, the “Onset of Symptoms” value in the data set with Sprague Dawley rats [5] (20 mg/Kg) is 200 min. Further, the “In vivo lethality (oral)” value with Sprague Dawley rats [5] (40 mg/Kg) was “yes^h”.

Values taken from patent US9198420B2, “Rodenticidal norbormide analogues” (priority 2012, dated 2015).
